Reference: BigSolDB 2.1

## CC[C@H](C)[C@H]1O[C@]2(C=C[C@@H]1C)C[C@@H]1C[C@@H](C/C=C(\C)[C@@H](O[C@H]3C[C@H](OC)[C@@H](O[C@H]4C[C@H](OC)[C@@H](O)[C@H](C)O4)[C@H](C)O3)[C@@H](C)/C=C/C=C3\CO[C@@H]4[C@H](O)C(C)=C[C@@H](C(=O)O1)[C@]34O)O2
In acetone, 283.15 K
  solubility (mole fraction): 0.00916
In acetone, 288.15 K
  solubility (mole fraction): 0.0104
In acetone, 293.15 K
  solubility (mole fraction): 0.0119
In acetone, 298.15 K
  solubility (mole fraction): 0.0134
In acetone, 303.15 K
  solubility (mole fraction): 0.0151
In acetone, 308.15 K
  solubility (mole fraction): 0.0175
In acetone, 313.15 K
  solubility (mole fraction): 0.0194
In isopropanol, 283.15 K
  solubility (mole fraction): 0.00481
In isopropanol, 288.15 K
  solubility (mole fraction): 0.00589
In isopropanol, 293.15 K
  solubility (mole fraction): 0.0071
In isopropanol, 298.15 K
  solubility (mole fraction): 0.00804
In isopropanol, 303.15 K
  solubility (mole fraction): 0.0096
In isopropanol, 308.15 K
  solubility (mole fraction): 0.0113
In isopropanol, 313.15 K
  solubility (mole fraction): 0.0137
